This test deals with T1, rat-species vanilloid receptor 1 (VR1/TRPV1) (Rattus norvegicus, UniProt O35433).
T1 construct: endogenous in cells; host or cells: primary cells dissociated from rat dorsal root ganglia (DRG), cultured 2-3 days with NGF
In words: Functional test on rat VR1, NADA (N-arachidonoyl dopamine) stimulus. On the set-up: key to Ki (rat) NADA: agonist / partial agonist / no effect: AG=agonist; pAG=partial agonist; NE=no effect. The test is classed as cell-based. The source says:
I. Functional Testing Carried Out on the Vanilloid Receptor 1 (VRI/TRPV1 Receptor)
The agonistic or antagonistic effect of the substances to be tested on the rat-species vanilloid receptor 1 (VR1/TRPV1) can be determined using the following assay. In this assay, the influx of Ca^2+ through the receptor channel is quantified with the aid of a Ca^2+-sensitive dye (type Fluo-4, Molecular Probes Europe BV, Leiden, the Netherlands) in a fluorescent imaging plate reader (FLIPR, Molecular Devices, Sunnyvale, USA).
The vertebral column is removed from decapitated rats and placed immediately into cold HBSS buffer (Hank's buffered saline solution, Gibco Invitrogen GmbH, Karlsruhe, Germany), i.e. buffer located in an ice bath, mixed with 1% by volume (per cent by volume) of an AA solution (antibiotic/antimyotic solution, PAA, Pasching, Austria). […] The resulting pellet is respectively taken up in 250 μL of complete medium and the cell count is determined.
The number of cells in the suspension is set to 3×10^5 per ml and 150 μL of this suspension are in each case introduced into a recess in the cell culture plates coated as described hereinbefore. […] The Ca^2+-dependent fluorescence is in this case measured before and after the addition of substances (λex=488 nm, λem=540 nm). Quantification is carried out by measuring the highest fluorescence intensity (FC, fluorescence counts) over time. […]

T1 sequence (O35433 whole entry): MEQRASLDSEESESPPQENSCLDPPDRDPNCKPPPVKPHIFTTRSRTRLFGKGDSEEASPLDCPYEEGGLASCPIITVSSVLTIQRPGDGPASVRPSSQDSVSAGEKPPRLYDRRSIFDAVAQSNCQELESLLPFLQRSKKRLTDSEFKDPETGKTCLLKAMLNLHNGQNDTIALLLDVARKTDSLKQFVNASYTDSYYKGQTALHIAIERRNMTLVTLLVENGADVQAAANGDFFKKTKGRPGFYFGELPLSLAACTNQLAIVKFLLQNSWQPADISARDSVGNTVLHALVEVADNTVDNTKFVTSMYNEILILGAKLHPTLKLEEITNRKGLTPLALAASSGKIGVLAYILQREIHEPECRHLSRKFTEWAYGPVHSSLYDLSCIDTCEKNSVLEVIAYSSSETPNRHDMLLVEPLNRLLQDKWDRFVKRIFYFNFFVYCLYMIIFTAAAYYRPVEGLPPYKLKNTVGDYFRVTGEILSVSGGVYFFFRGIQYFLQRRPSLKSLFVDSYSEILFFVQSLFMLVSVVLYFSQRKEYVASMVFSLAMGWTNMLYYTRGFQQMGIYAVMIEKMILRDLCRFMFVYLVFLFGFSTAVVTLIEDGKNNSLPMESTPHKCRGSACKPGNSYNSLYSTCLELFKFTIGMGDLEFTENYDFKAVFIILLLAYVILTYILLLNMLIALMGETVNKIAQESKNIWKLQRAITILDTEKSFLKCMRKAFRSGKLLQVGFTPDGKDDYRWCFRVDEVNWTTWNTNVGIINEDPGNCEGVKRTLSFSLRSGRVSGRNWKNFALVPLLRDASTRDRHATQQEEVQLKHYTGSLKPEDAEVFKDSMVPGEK

In the case of `Cc1nc2ccc(C(C)C(=O)NCc3cc(C(F)(F)F)nn3-c3cccc(Cl)c3)cc2s1` (centres unmarked) [Example 45, N-((1-(3-chlorophenyl)-3-(trifluoromethyl)-1H-pyrazol-5-yl)methyl)-2-(2-methylbenzo[d]thiazol-6-yl)propanamide], the “Ki (rat) NADA: agonist / partial agonist / no effect” value is listed as “AG”.
For the compound `CC(C)(C)c1cc(CNC(=O)Nc2ccc3c(c2)CCC3)n(-c2cccc(Cl)c2)n1` [Example 79, 1-((3-tert-butyl-1-(3-chlorophenyl)-1H-pyrazol-5-yl)methyl)-3-(2,3-dihydro-1H-inden-5-yl)urea], the Ki (in general, a measure of affinity in units of concentration, obtained from inhibition or displacement) is 39.1 nM.

Values taken from patent US8334315B2, “Substituted aromatic carboxamide and urea derivatives as vanilloid receptor ligands” (Gruenenthal GmbH, priority 2009, dated 2012).
